Reference: US20120232142A1, “NOVEL USE OF DIMETHYLFUMARATE” (KYUNGPOOK NATIONAL UNIVERSITY INDUSTRY ACADEMIC COOPERATION …, priority 2007, published 2012)
Where a name gives a salt, the structure may show the parent alone.

How the values were obtained:
AMPK = experiment: Western blot of AMPK and ACC phosphorylation in vascular smooth muscle cells; format: cell-based, Sprague-Dawley rat; settings: 5 μM; 1, 2, 3, 6, 12 hours
Procedure: (§1) For culturing vascular smooth muscle cells, vascular smooth muscle cells were isolated from the aorta of Sprague-Dawley rat and were first cultured. Vascular smooth muscle cells were cultured in a culturing apparatus having conditions of 37° C., 5% carbon dioxide until cells are grown up in culture medium containing 20% bovine fetal serum. Cells obtained from the procedure were transferred to a fresh culture dish to culture, and the initial cells subcultured up to 4 to 7 times were used in experiments.
(§2) First cultured vascular smooth muscle cells were filled in about 80 to 90% of 60 mm tissue culture dish, and the cells were stood in a medium containing 0.5% FBS for 24 hours to render the cells to be interphase status. […]
(§3) Whole proteins were separated from vascular smooth muscle cells of each group by employing RIPA buffer solution (50 mM Tris-HCl, 150 mM NaCl, 5 mM EDTA, 1% NP-40, 1 mM PMSF, 1 mM DTT, 1 mg/ml protease inhibitor). Separated proteins of each sample were quantitatively analyzed, 25 mg of proteins were mixed with sample buffer solution, the mixture was boiled for 5 minutes and then cooled, electrophoresis was performed for the resulting product in sodium dodecyl sulfate polyacrylamide gel to separate depending on size, then the product was transferred to a PVDF membrane, and then reacted with pAMPK or pACC antibody to confirm phosphorylation thereof. […]

pRb and CDK = experiment: Western blot of Rb phosphorylation and CDK expression in vascular smooth muscle cells with PDGF; format: cell-based, Sprague-Dawley rat
Procedure: as §1
First cultured vascular smooth muscle cells were filled in about 80 to 90% of 60 mm tissue culture dish, and the cells were stood in a medium containing 0.5% FBS for 24 hours to render the cells to be interphase status. The group not treated with dimethyl fumarate was defined as a control, and experimental groups were divided into 3 groups treated with 5 μM dimethyl fumarate for 6, 12 and 24 hours, respectively, with or without PDGF. […] Separated proteins of each sample were quantitatively analyzed, 25 μg of proteins were mixed with sample buffer solution, the mixture was boiled for 5 minutes and then cooled, electrophoresis was performed for the resulting product in sodium dodecyl sulfate polyacrylamide gel to separate depending on size, then the product was transferred to a PVDF membrane, and then reacted with an antibody against pRb or Cyclin. […]

p53 and p21 = experiment: Western blot of p53 and p21 expression in vascular smooth muscle cells; format: cell-based, Sprague-Dawley rat; settings: 5 μM; 1, 2, 3, 6, 12 hours
Procedure: as §1, §2
as §3, with “mM Tris HCl,” for “mM Tris-HCl,”, “25 μg” for “25 mg”, “with p53” for “with pAMPK”, “or p21” for “or pACC”, “confirm the expression” for “confirm phosphorylation”

[1] = system: vascular smooth muscle cells; experiment: Cell cycle analysis by FACS (PI staining) of vascular smooth muscle cells; format: cell-based, Sprague-Dawley rat; settings: 5 μM pretreated 2 hours; growth factor and insulin 24 hours; stimulated without drug 8.7%
Procedure: For culturing vascular smooth muscle cells, vascular smooth muscle cells were isolated from the aorta of Sprague-Dawley rat and were first cultured. Vascular smooth muscle cells were cultured in a culturing apparatus having conditions of 37° C., 5% carbon dioxide until cells are grown up in culture medium containing 20% bovine fetal serum. Cells obtained from the procedure were transferred to a fresh culture dish to culture, and the initial cells subcultured up to 4 to 7 times were used in experiments. Vascular smooth muscle cells were analyzed for cell cycle employing FACS in order to confirm the effect of dimethyl fumarate on cell cycle. 5 μM dimethyl fumarate were pretreated for 2 hours in the vascular smooth muscle cells cultured in a medium containing 0.5% bovine fetal serum for 24 hours. Cells were treated with a growth factor and insulin to induce cells into replication phase, and reaction was performed for 24 hours. Then cells were collected and immobilized, and then their nucleuses were stained with propidium iodide (PI), and cell cycle was analyzed by employing FACS. Cell cycle was indicated as % by measuring 10,000 cells per each sample.

neointima = experiment: Neointima formation after balloon dilation in rats fed high fat diet (H & E staining); format: in vivo, Sprague-Dawley rats; settings: 4 weeks
Procedure: In order to confirm whether dimethyl fumarate inhibits the formation of neointima after balloon dilation, experiments were performed with Sprague-Dawley rats fed with food containing dimethyl fumarate. The rats were bred while maintaining conditions that the temperature of the breeding room was maintained at 22±2° C., and brightness was automatically controlled in 12 hour cycles. Rats were categorized into a normal control group, a negative control group fed with only high fat diet (20% fat, 0.05% cholesterol), and an experiment group fed with food containing 0.5% or 1% dimethyl fumarate together with high fat diet (4 rats per each group), and experiments were progressed while breeding for 4 weeks in separate cages containing one rat per cage. Balloon dilation was performed after breeding rats for 2 weeks before the balloon dilation, and breeding was performed for 2 weeks more while continuing on feeding general diet and dimethyl fumarate diet, and then their aorta were separated and the formation of neointima was confirmed with H & E (hematoxylin and eosin) staining method.

[2] = system: vascular smooth muscle cells; experiment: Inhibition of PDGF-induced vascular smooth muscle cell proliferation (WST cell counting); format: cell-based, Sprague-Dawley rat; settings: 1, 2, 5, 10 μM; PDGF 20 ng/ml; 48 hours; OD 450 nm
Procedure: For culturing vascular smooth muscle cells, vascular smooth muscle cells were isolated from the aorta of Sprague-Dawley rat and were first cultured. Vascular smooth muscle cells were cultured in a culturing apparatus having conditions of 37° C., 5% carbon dioxide until cells are grown up in culture medium containing 20% bovine fetal serum. Cells obtained from the procedure were transferred to a fresh culture dish to culture, and the initial cells subcultured up to 4 to 7 times were used in experiments. First cultured vascular smooth muscle cells were cultured in 96-well culture dish, and when growth reached 70%, they were transferred to a medium containing 0.5% bovine fetal serum, and then cultured for 24 hours and the cells was stood at interphase status. […] The number of viable cells was measured employing WST cell counting kit (WAKO, Japan). A reagent for confirming cell proliferation was treated thereto, reaction was further performed for 4 hours, and then optical density was measured at 450 nm with ELISA reader to investigate the ability of proliferating cells. The results of the experiments were shown by taking an average from values measured in more than three separate experiments.

COC(=O)/C=C/C(=O)OC [dimethyl fumarate]
activity (phosphorylation) of AMPK (AMPK): initially increased
phosphorylation of ACC (AMPK): continuously increased
expression of CDK (pRb and CDK; 5 μM pretreated 2 hours, then PDGF): more inhibited
phosphorylation of Rb promoted by a growth factor or CDK (pRb and CDK; 5 μM, 6, 12 and 24 hours, with or without PDGF): inhibits
expression of p21 (p53 and p21): increased
expression of p53 (p53 and p21): increased
cells in replication phase status [1]: 3.4%
formation of neointima after balloon dilation (neointima; food containing 0.5% dimethyl fumarate with high fat diet): certainly decreased
formation of neointima after balloon dilation (neointima; food containing 1% dimethyl fumarate with high fat diet): certainly decreased
cell proliferation increased by platelet derived growth factor [2]: inhibited as the concentration of dimethyl fumarate was increased
